The values below come from ChEMBL document CHEMBL1133998, “Studies directed towards the refinement of the pancratistatin cytotoxic pharmacophore” (2001).

What all share (format): functional
The subject of one test is P388. Briefly: Effective dose against the p-388 mouse leukemia cell line. Particulars: read-out: ED50 (the source's name).
For another test, the system named is HL-60. The test can be described thus: Effective dose for inhibition of proliferation of the leukemia cell line HL-60(TB). The conditions noted are these: Homo sapiens, read-out: ED50 (the source's name).
The test system of a further test is CCRF-CEM. Briefly: Effective dose for inhibition of proliferation of the leukemia cell line CCRF-CEM. Particulars: Homo sapiens, read-out: ED50 (the source's name).
A further test relates to NCI-H226. The test can be described thus: Effective dose for inhibition of proliferation of the lung cancer cell line NCI-H226. Particulars: Homo sapiens, read-out: ED50 (the source's name).

Converted amounts (≈) assume the structure as drawn.

Turning to `O=C1N[C@H]2[C@H](O)CCC[C@@H]2c2cc3c(cc21)OCO3`, the EC50 in the test with P388 was 40.1 µg/mL (≈ 153 µM).

Regarding `O=C1N[C@H]2C[C@H](O)[C@@H](O)C[C@@H]2c2cc3c(cc21)OCO3`, the EC50 in the test on HL-60 came to 0.89 µg/mL (≈ 3.21 µM); in the test with CCRF-CEM it was 0.55 µg/mL (≈ 1.98 µM); with P388, 0.45 µg/mL (≈ 1.62 µM); with NCI-H226 it was 0.65 µg/mL (≈ 2.34 µM).
